Reference: ChEMBL document CHEMBL1149980, “Synthesis of rutaecarpine and cytotoxic analogues” (1995)

How the values were obtained:
Assay type in all cases: functional
Conditions in all cases: Homo sapiens
OVCAR-4 = experiment: Tested for in vitro cytotoxicity against ovarian cancer cell line OVCAR-4
NCI-H460 = experiment: Tested for in vitro cytotoxicity against non-small cell lung cancer cell line NCI-H460
A549 = experiment: Tested for in vitro cytotoxicity against non-small cell lung cancer cell line A549/ATCC
Hs-578T = experiment: Tested for in vitro cytotoxicity against breast cancer cell line Hs 578.T
CCRF-CEM = experiment: Tested for in vitro cytotoxicity against leukemia cell line CCRF-CEM
786-0 = experiment: Tested for in vitro cytotoxicity against renal cancer cell line 786-0

| Compound | GI50 (OVCAR-4) | GI50 (NCI-H460) | GI50 (A549) | GI50 (Hs-578T) | GI50 (CCRF-CEM) | GI50 (786-0) |
| --- | --- | --- | --- | --- | --- | --- |
| COc1ccc2c3c([nH]c2c1)-c1nc2ccccc2c(=O)n1CC3 | > 25 µM | 1.38 µM | 0.75 µM | 1.59 µM | > 25 µM | 0.31 µM |
| O=c1c2ccccc2nc2n1CCc1c-2[nH]c2cc3c(cc12)OCO3 | 1.5 µM | 1.55 µM | > 25 µM | 5.05 µM | > 25 µM | 1.08 µM |
| COc1ccc2[nH]c3c(c2c1)CCn1c-3nc2ccccc2c1=O | > 25 µM | > 25 µM | > 25 µM | > 25 µM | > 25 µM | > 25 µM |
| O=c1c2ccccc2nc2n1CCc1c-2[nH]c2ccccc12 [RUTAECARPINE] | 18.9 µM | – | 14.5 µM | 22.6 µM | 18.9 µM | – |
